Assay results reported in PubChem BioAssay (NCI).
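Method: 48-hour compound exposure of cells in 96-well plates, five concentrations, linear interpolation of endpoints. TGI marks complete inhibition of growth.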

Assays:
Test in all cases: NCI tumour cell line growth inhibition, 48 h
[1] = test system: IGROV1 ovarian
[2] = test system: OVCAR-3 ovarian
[3] = test system: SN12C renal
[4] = test system: HOP-62 NSCLC
[5] = test system: SF-295 CNS
[6] = test system: HT29 colon
[7] = test system: NCI-H460 lung
[8] = test system: ACHN renal
[9] = test system: MALME-3M melanoma
[10] = test system: NCI-H23 lung
[11] = test system: TK-10 renal
[12] = test system: A549 NSCLC
[13] = test system: U251 CNS
[14] = test system: UACC-257 melanoma
[15] = test system: OVCAR-5 ovarian
[16] = test system: HCT-15 colon
[17] = test system: PC-3 prostate
[18] = test system: HL-60(TB) leukemia
[19] = test system: CCRF-CEM leukemia
[20] = test system: HS 578T breast
[21] = test system: SK-MEL-5 melanoma
[22] = test system: NCI/ADR-RES ovarian
[23] = test system: MDA-MB-435
[24] = test system: KM12 colon
[25] = test system: SF-268 CNS
[26] = test system: BT-549 breast
[27] = test system: MDA-N
[28] = test system: SK-MEL-2 melanoma
[29] = test system: HCT-116 colon
[30] = test system: UO-31 renal
[31] = test system: OVCAR-4 ovarian
[32] = test system: 786-0 renal
[33] = test system: SW-620 colon
[34] = test system: SK-MEL-28 melanoma
[35] = test system: OVCAR-8 ovarian
[36] = test system: SNB-19 CNS
[37] = test system: M14 melanoma
[38] = test system: UACC-62 melanoma
[39] = test system: NCI-H522 lung
[40] = test system: MDA-MB-231 breast
[41] = test system: EKVX NSCLC
[42] = test system: MOLT-4 leukemia
[43] = test system: HOP-92 NSCLC
[44] = test system: SR leukemia
[45] = test system: CAKI-1 renal
[46] = test system: K-562 leukemia
[47] = test system: A498 renal
[48] = test system: NCI-H226 lung
[49] = test system: LOX IMVI melanoma
[50] = test system: RXF 393 renal
[51] = test system: RPMI-8226 leukemia
[52] = test system: T-47D breast
[53] = test system: SF-539 CNS
[54] = test system: SNB-75 CNS
[55] = test system: SK-OV-3 ovarian
[56] = test system: DU-145 prostate
[57] = test system: MCF7 breast
[58] = test system: COLO 205 colon

`NC(Cc1ccccc1)P(=O)(O)O` (centres undefined) was tested, and the TGI [1] was over 100 µM, the TGI [2] was over 100 µM and the TGI [3] was over 100 µM. For the same compound, the TGI [4] was over 100 µM, the TGI [5] was over 100 µM and the TGI [6] was over 100 µM. The TGI [7] was over 100 µM, the TGI [8] was over 100 µM and the TGI [9] was over 100 µM. For the same compound, the TGI [10] was over 100 µM, the TGI [11] was over 100 µM and the TGI [12] was over 100 µM. The TGI [13] was over 100 µM, the TGI [14] was over 100 µM and the TGI [15] was over 100 µM. It also gave a TGI [16] of over 100 µM, a TGI [17] of over 100 µM and a TGI [18] of over 100 µM. It also gave a TGI [19] of over 100 µM, a TGI [20] of over 100 µM and a TGI [21] of over 100 µM. The TGI [22] was over 100 µM, the TGI [23] was over 100 µM and the TGI [24] was over 100 µM. The TGI [25] was over 100 µM, the TGI [26] was over 100 µM and the TGI [27] was over 100 µM. The TGI [28] was over 100 µM, the TGI [29] was over 100 µM and the TGI [30] was over 100 µM. The TGI [31] was over 100 µM, the TGI [32] was over 100 µM and the TGI [33] was over 100 µM. It also gave a TGI [34] of over 100 µM, a TGI [35] of over 100 µM and a TGI [36] of over 100 µM. It also gave a TGI [37] of over 100 µM, a TGI [38] of over 100 µM and a TGI [39] of over 100 µM. It also gave a TGI [40] of over 100 µM, a TGI [41] of over 100 µM and a TGI [42] of over 100 µM. For the same compound, the TGI [43] was over 100 µM, the TGI [44] was over 100 µM and the TGI [45] was over 100 µM. For the same compound, the TGI [46] was over 100 µM, the TGI [47] was over 100 µM and the TGI [48] was over 100 µM. The TGI [49] was over 100 µM, the TGI [50] was over 100 µM and the TGI [51] was over 100 µM. For the same compound, the TGI [52] was over 100 µM.

With `N#CC(C/C=C/c1ccccc1)NNC(=O)c1c(Cl)c(Cl)c(Cl)c(Cl)c1-c1nc2ccc(C(=O)c3ccccc3)cc2[nH]1` (centres undefined) the TGI [53] was 26.9 µM, the TGI [1] was over 100 µM and the TGI [2] was 37.4 µM. It also gave a TGI [3] of 32.7 µM, a TGI [4] of 24.8 µM and a TGI [5] of 22.4 µM. The TGI [6] was 33.2 µM, the TGI [54] was 46.4 µM and the TGI [8] was 97.3 µM. The TGI [10] was 55.8 µM, the TGI [11] was 66 µM and the TGI [12] was 55.4 µM. It also gave a TGI [13] of 25 µM, a TGI [14] of over 100 µM and a TGI [15] of 94.7 µM. It also gave a TGI [55] of 55.5 µM, a TGI [16] of 29.2 µM and a TGI [17] of 35.9 µM. For the same compound, the TGI [18] was 54.5 µM, the TGI [19] was 20.3 µM and the TGI [56] was 50.7 µM. The TGI [21] was 32 µM, the TGI [22] was 31 µM and the TGI [23] was 51.9 µM. The TGI [24] was over 100 µM, the TGI [26] was 54.4 µM and the TGI [27] was 19.4 µM. The TGI [57] was 36.2 µM, the TGI [28] was 45 µM and the TGI [29] was 62.2 µM. For the same compound, the TGI [30] was over 100 µM, the TGI [31] was 73.9 µM and the TGI [32] was 30.2 µM. The TGI [33] was over 100 µM, the TGI [34] was over 100 µM and the TGI [35] was 37.1 µM. For the same compound, the TGI [36] was 35.8 µM, the TGI [37] was 30.9 µM and the TGI [58] was 42 µM. The TGI [40] was 34.4 µM, the TGI [41] was 47.4 µM and the TGI [42] was 81.5 µM. It also gave a TGI [43] of 73.3 µM, a TGI [44] of 45.2 µM and a TGI [45] of over 100 µM. The TGI [46] was 55.2 µM, the TGI [47] was 41.9 µM and the TGI [48] was 41.6 µM. The TGI [49] was 28.5 µM, the TGI [50] was 39.8 µM and the TGI [51] was 50.2 µM. The TGI [52] was 63.8 µM.
